Test system: IPF patients
Assay: Phase II clinical trial in IPF patients: Treatment Emergent Adverse Events (safety/tolerability), up to 13 weeks
[1] = AF-group (antifibrotic background), 18 mg b.i.d.

Method: The participants were divided into 2 groups by chance (the “active agent group” and the “placebo group”). […] One 12 mg placebo tablet and one 6 mg placebo tablet (both containing no active ingredient, see Table 1) was administered orally to the patients of the second group twice daily (b.i.d.).
The “active agent group” and the “placebo group” were further distributed to two different groups regarding background medication: the “AF-group” (“antifibrotic background medication group”) and the “Non-AF-group” (“no antifibrotic background medication group”). […] The combination of both nintedanib and pirfenidone as background medication was not allowed in the “AF-group”.
The trial was a randomised, double-blind, placebo-controlled parallel group study.

[O-][S@+]1CCc2nc(N3CCC(c4ncc(Cl)cn4)CC3)nc(NC3(CO)CCC3)c21 [Comp. of form. III]
Arthralgia, % (AF Ninted., N = 26): (7.7) %
Bronchitis, % (AF Ninted., N = 26): (3.8) %
Condition aggravated, % (AF Ninted., N = 26): (3.8) %
Cough, % (AF Ninted., N = 26): (7.7) %
Decreased appetite, % (AF Ninted., N = 26): (7.7) %
Diarrhoea, % (AF Ninted., N = 26): (46.2) %
Dyspepsia, % (AF Ninted., N = 26): (3.8) %
Fatigue, % (AF Ninted., N = 26): (3.8) %
Flatulence, % (AF Ninted., N = 26): (3.8) %
Gastrointestinal disorders, % (AF Ninted., N = 26): (46.2) %
General Disorders and Administration Side conditions, % (AF Ninted., N = 26): (19.2) %
Headache, % (AF Ninted., N = 26): (7.7) %
Infections and infestations, % (AF Ninted., N = 26): (23.1) %
Investigations, % (AF Ninted., N = 26): (26.9) %
Metabolism and nutrition disorders, % (AF Ninted., N = 26): (11.5) %
Musculoskeletal and connective tissue disorders, % (AF Ninted., N = 26): (7.7) %
Nasopharyngitis, % (AF Ninted., N = 26): (15.4) %
Nervous system disorders, % (AF Ninted., N = 26): (15.4) %
Oedema peripheral, % (AF Ninted., N = 26): (3.8) %
Pyrexia, % (AF Ninted., N = 26): (2.1) %
Respiratory, thoracic and mediastinal disorders, % (AF Ninted., N = 26): (11.5) %
Vomiting, % (AF Ninted., N = 26): (3.8) %
Abdominal Pain, % (AF Pirf., N = 15): (4.3) %
Asthenia, % (AF Pirf., N = 15): (4.3) %
Condition aggravated, % (AF Pirf., N = 15): (4.3) %
Constipation, % (AF Pirf., N = 15): (4.3) %
Cough, % (AF Pirf., N = 15): (8.7) %
Diarrhoea, % (AF Pirf., N = 15): (13.0) %
Dizziness, % (AF Pirf., N = 15): (4.3) %
Dyspepsia, % (AF Pirf., N = 15): (4.3) %
Fatigue, % (AF Pirf., N = 15): (4.3) %
Flatulence, % (AF Pirf., N = 15): (4.3) %
Gastrointestinal disorders, % (AF Pirf., N = 15): (26.1) %
General Disorders and Administration Side conditions, % (AF Pirf., N = 15): (8.7) %
Headache, % (AF Pirf., N = 15): (4.3) %
Infections and infestations, % (AF Pirf., N = 15): (4.3) %
Investigations, % (AF Pirf., N = 15): (13.0) %
Musculoskeletal and connective tissue disorders, % (AF Pirf., N = 15): (4.3) %
Nausea, % (AF Pirf., N = 15): (4.3) %
Nervous system disorders, % (AF Pirf., N = 15): (21.7) %
Respiratory, thoracic and mediastinal disorders, % (AF Pirf., N = 15): (13.0) %
Rhinorrhoea, % (AF Pirf., N = 15): (4.3) %
Vomiting, % (AF Pirf., N = 15): (4.3) %
AE resulting in death, patients % [1]: (2.0) %
AE resulting in death, patients n [1]: 1
AE: Abdominal pain, patients % [1]: (2.0) %
AE: Abdominal pain, patients n [1]: 1
AE: Arthralgia, patients % [1]: (4.1) %
AE: Arthralgia, patients n [1]: 2
AE: Asthenia, patients % [1]: (2.0) %
AE: Asthenia, patients n [1]: 1
AE: Bronchitis, patients % [1]: (2.0) %
AE: Bronchitis, patients n [1]: 1
AE: Condition aggravated, patients % [1]: (4.1) %
AE: Condition aggravated, patients n [1]: 2
AE: Constipation, patients % [1]: (2.0) %
AE: Constipation, patients n [1]: 1
AE: Cough, patients % [1]: (8.2) %
AE: Cough, patients n [1]: 4
AE: Decreased appetite, patients % [1]: (4.1) %
AE: Decreased appetite, patients n [1]: 2
AE: Diarrhoea, patients % [1]: 30.6%
AE: Diarrhoea, patients n [1]: 15
AE: Dizziness, patients % [1]: (2.0) %
AE: Dizziness, patients n [1]: 1
AE: Dyspepsia, patients % [1]: (4.1) %
AE: Dyspepsia, patients n [1]: 2
AE: Fatigue, patients % [1]: (2.0) %
AE: Fatigue, patients n [1]: 1
AE: Flatulence, patients % [1]: (4.1) %
AE: Flatulence, patients n [1]: 2
AE: Gastrointestinal disorders, patients % [1]: 36.7%
AE: Gastrointestinal disorders, patients n [1]: 18
AE: General disorders and administration site conditions, patients % [1]: (14.3) %
AE: General disorders and administration site conditions, patients n [1]: 7
AE: Headache, patients % [1]: (6.1) %
AE: Headache, patients n [1]: 3
AE: Infections and infestations, patients % [1]: (14.3) %
AE: Infections and infestations, patients n [1]: 7
AE: Investigations, patients % [1]: (20.4) %
AE: Investigations, patients n [1]: 10
AE: Metabolism and nutrition disorders, patients % [1]: (6.1) %
AE: Metabolism and nutrition disorders, patients n [1]: 3
AE: Musculoskeletal and connective tissue disorders, patients % [1]: (6.1) %
AE: Musculoskeletal and connective tissue disorders, patients n [1]: 3
AE: Nasopharyngitis, patients % [1]: (8.2) %
AE: Nasopharyngitis, patients n [1]: 4
AE: Nausea, patients % [1]: (2.0) %
AE: Nausea, patients n [1]: 1
AE: Nervous system disorders, patients % [1]: (18.4) %
AE: Nervous system disorders, patients n [1]: 9
AE: Oedema peripheral, patients % [1]: (2.0) %
AE: Oedema peripheral, patients n [1]: 1
AE: Pyrexia, patients % [1]: (2.0) %
AE: Pyrexia, patients n [1]: 1
AE: Respiratory, thoracic and mediastinal disorders, patients % [1]: (12.2) %
AE: Respiratory, thoracic and mediastinal disorders, patients n [1]: 6
AE: Rhinorrhoea, patients % [1]: (2.0) %
AE: Rhinorrhoea, patients n [1]: 1
AE: Vomiting, patients % [1]: (4.1) %
AE: Vomiting, patients n [1]: 2
AE: Weight decreased, patients % [1]: (2.0) %
AE: Weight decreased, patients n [1]: 1
AEs leading to discontinuation of trial drug, patients % [1]: (20.4) %
AEs leading to discontinuation of trial drug, patients n [1]: 10
Any AE, patients n [1]: 36
SAE: Condition aggravated, patients % [1]: (4.1) %
